Laboratory results published in PubChem BioAssay (NCI).
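Assay format: 96-well plates, 48-hour exposure. At the GI50, growth is halved. TGI is the concentration that stops growth completely.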

Legend:
Test in all cases: NCI-60 cell line screen, 48 h
[1] = system: UACC-62 melanoma
[2] = system: K-562 leukemia
[3] = system: RXF 393 renal
[4] = system: SK-OV-3 ovarian
[5] = system: OVCAR-4 ovarian
[6] = system: SK-MEL-28 melanoma
[7] = system: MDA-MB-231 breast
[8] = system: T-47D breast
[9] = system: HS 578T breast
[10] = system: IGROV1 ovarian

Row | SMILES | GI50 [1] [µM] | TGI [1] [µM] | GI50 [2] [µM] | TGI [2] [µM] | GI50 [3] [µM] | TGI [3] [µM] | GI50 [4] [µM] | TGI [4] [µM] | GI50 [5] [µM] | TGI [5] [µM] | GI50 [6] [µM] | TGI [6] [µM] | GI50 [7] [µM] | TGI [7] [µM] | GI50 [8] [µM] | TGI [8] [µM] | GI50 [9] [µM] | TGI [9] [µM] | GI50 [10] [µM] | TGI [10] [µM]
1 | COC(=O)c1cc(-c2ccc(OC)c(OC)c2)[nH]c1N/N=C/c1c(Cl)cccc1Cl | 0.552 | 11.2 | 0.46 | > 100 | 0.132 | 0.933 | 0.567 | 2.66 | 1.67 | 12.1 | 0.97 | 71.2 | 1.31 | 5.03 | 3.99 | 92.5 | 0.523 | 11 | – | –
2 | Cc1[nH]c(-c2cc(N)ccc2Cl)c2c1C(=O)CCCC2 | 0.809 | 7.2 | 3.59 | > 100 | 2.06 | 6.06 | 3.56 | 36.6 | 2.95 | > 100 | 6.5 | > 100 | 3.82 | > 100 | 3.47 | > 100 | 2.11 | 17.8 | 2.58 | 29.1
3 | Nc1n[nH]c2ccc([C@@H]3Nc4cc5c(cc4[C@H]4C6CCC(C6)[C@@H]34)C(=O)NC5)cc12 (stereo partly specified) | 0.408 | > 100 | 0.131 | > 100 | 0.273 | – | 0.844 | > 100 | 1.37 | > 100 | 4.17 | > 100 | 0.436 | – | – | > 100 | 0.484 | > 100 | 0.417 | > 100
4 | Cc1[nH]nc(-c2ccon2)c1N=O | – | 34.7 | – | 44.8 | – | 97.7 | – | 89.2 | – | 37.6 | – | 43.1 | – | 32.4 | – | 60.5 | – | 80.7 | – | 70.1
5 | CC1C=CC(OC(=O)C(C)(O)CCC(O)(C(=O)OC2CC(O)C(C(C)C)CC2(C)O)C(C)C)(C(C)C)CC1 (stereo unspecified) | 0.511 | 2.79 | 0.0916 | 0.218 | 0.57 | 1.35 | 0.799 | 4.1 | 0.746 | 1.71 | 2.1 | 8.27 | 0.656 | 1.36 | 0.292 | 1.81 | 0.792 | 4.84 | 0.232 | 0.64
6 | C=CCc1cc(Nc2c3ccc(Cl)cc3nc3ccc(OC)cc23)cc(CN(CC)CC)c1O | 1.75 | 4.4 | 0.615 | 4.11 | 1.23 | 4.66 | 1.9 | 6.62 | 1.68 | 12.2 | 3.37 | 18.1 | 2.35 | 10.8 | 0.499 | 4.28 | 3.04 | 14.3 | 2.69 | 21.1
7 | O=Nc1c(-c2c(O)[nH]c3ncccc23)[nH]c2ccccc12 | – | > 100 | – | > 100 | > 100 | > 100 | – | – | 9.1 | > 100 | > 57.3 | > 100 | 16 | > 100 | 2.99 | > 100 | 2.71 | > 100 | 1.72 | > 100
8 | N/C(=N\OC(=O)c1ccccc1)C(Cc1ccccc1)C(=O)NOC(=O)c1ccccc1 (stereo unspecified) | 2.49 | 7.53 | 1.05 | 3.42 | 1.97 | 5.6 | 5.48 | 18.2 | 4.38 | 27.3 | 7.76 | 22.6 | 4.6 | 18.1 | 3.18 | 15.8 | 0.952 | 3.27 | 0.43 | 2.09
9 | COc1cc2cc(Oc3ccc(NC(=O)c4ccc(Cl)c(Cl)c4)cc3)c(C)nc2cc1OC | > 100 | > 100 | 7.23 | > 100 | 9.66 | > 100 | > 100 | > 100 | 5.26 | > 100 | > 100 | > 100 | 9.89 | > 100 | 3.28 | > 100 | 7.24 | > 100 | > 100 | > 100
10 | CCOC(=O)c1cc2c(cc1Cl)SC(=Nc1ccccc1)N(S(=O)(=O)c1ccc(Br)s1)S2(=O)=O | 14.4 | 28.1 | 4.73 | 21.1 | 2.1 | 11.5 | 34.5 | > 100 | 23.4 | 59.8 | 24.1 | 64.5 | 14.1 | 30.6 | 15.6 | 53.9 | 18.7 | 49.4 | 17.7 | 53.4
11 | COc1cc(/C=C/c2ccc3c(Br)cc(Br)c(O)c3n2)ccc1O | 1.67 | 5.3 | 0.441 | 10.5 | 3.8 | 18.3 | 6.62 | 31.8 | 2.18 | 11.6 | 3.16 | 12.9 | 7.39 | 22 | 2.13 | 14.7 | 2.01 | 14.6 | 1.54 | 13.6
12 | Nc1nc(N)c(CCCCc2ccccc2)c(N)n1 | – | > 100 | – | > 100 | – | > 100 | – | > 100 | – | > 100 | – | > 100 | – | > 100 | – | > 100 | – | > 100 | – | > 100
13 | O=C(Nc1ccccc1OC(=O)c1ccccc1)c1ccccc1 | 64.8 | > 100 | 3.22 | > 100 | 50.9 | > 100 | 33.6 | > 100 | 18.7 | > 100 | > 100 | > 100 | 6.44 | > 100 | 41.9 | > 100 | 4.72 | > 100 | 2.91 | 17.1
